US7288258B2, “Polyepitopic protein fragments of the E6 and E7 proteins of HPV, their production and their use particularly in vaccination” (Peptide Immune Ligands, priority 1999, dated 2007)

Experiments:
Experiment in all cases: association of peptide with HLA molecules and stability of the complex
Conditions in all cases: stable complex: peptide remains bound for at least about 3 hours at 37° C.
[1] = system: HLA molecules of the A29 type; assay type: binding, human
Description: (§1) The different epitopes of the polyepitopic region of the predetermined protein, and delimiting the epitopic protein fragments, are preferably selected from the peptides; • binding to a predetermined molecule of MCH, particularly to a molecule of the predetermined HLA type, and this from concentrations of about 10^−6 M to about 10^−10 M in peptide for concentrations of about 10^−7 M of HLA molecules, particularly under the conditions described hereafter, • and forming a stable complex with said MCH molecule, namely particularly a complex in which said peptide remains bound to said molecule for at least about 3 hours at 37° C.
(§2) By way of illustration, the above-mentioned epitopes of the invention are selected from among the peptides adapted: • on the one hand of associating with the molecules of MCH, particularly by using the following method: • incubation (particularly for about 2 hours at 25° C., then about 15 hours at 4° C.) of the peptide in the presence of MCH molecules, from the lysis of human or animal cells, or purified particularly by affinity chromatography from human or animal cell lines, • trapping complexes formed during the preceding step on a solid support covered with a first antibody, particularly monoclonal, recognizing specifically the CMH molecules in their configuration dependent on their connection to said peptide, • addition to the preceding solid support of a second marked antibody, particularly by coupling to a radioactive, enzymatic or fluorescent marker, said marked antibody recognizing specifically either the long chains of MCH in their configuration dependent on their connection to the peptide, or the short chain of MCH or the β2-microglobulin binding specifically to the different long chains of the MCH in their above-mentioned configuration, • detection, after rinsing of the solid support, of the possible presence of the second marked antibody remaining fixed on the solid support, signifying an association effect between the molecules of MCH and the peptide studied, • and, on the other hand, forming a complex with said MCH molecules, whose stability can be evaluated by the use of a method of following according to time the connection established between the peptide and the MCH molecules, this method being preferably carried out according to a protocol identical to the preceding method, but in which the incubation step of the peptide in the presence of MCH molecules on the solid support covered with said first antibody, is preceded by a preliminary step of eliminating the free peptide adapted that may be present in the reaction medium, particularly by washing the solid support, said incubation step being carried out (preferably at a temperature of 37° C.) for variable times of 1 hours, 3 hours, 5 hours, 24 hours and 48 hours.
(§3) As mentioned above, the epitopes of the invention should be recognized by the T cells in association with the MCH molecules and associate with these latter, particularly in the framework of the practice of the recognition test described above. This association can be weak (detectable at concentrations of peptide analogs of the order of 10^−4 to 10^−5 M), intermediate (detectable at concentrations of peptide analogs of the order of 10^−6 to 10^−7 M), or strong (detectable at concentrations of peptide analogs of the order of 10^−8 to 10^−9 M). The peptides associated with the MCH molecules in the scope of the present invention are preferably adapted to bond during at least about 3 hours, to said MCH molecules.

[2] = system: HLA molecules of the B44 type; assay type: binding, human
Description: as §1, §2, §3

[3] = system: HLA molecules of the B35 type; assay type: binding, human
Description: as §1, §2, §3

[4] = target: T1, HLA molecules of the B7 type (Homo sapiens, UniProt P01889); assay type: binding
T1 construct: endogenous in cells
Description: as §1, §2, §3

[5] = system: HLA molecules of the A24 type; assay type: binding, human
Description: as §1, §2, §3

[6] = system: HLA molecules of the A11 type; assay type: binding, human
Description: as §1, §2, §3

[7] = target: T2, HLA molecules of the A3 type (Homo sapiens, UniProt P04439); assay type: binding
T2 construct: endogenous in cells
Description: as §1, §2, §3

[8] = system: HLA molecules of the B27 type; assay type: binding, human
Description: as §1, §2, §3

[9] = system: HLA molecules of the A2 type; assay type: binding, human
Description: as §1, §2, §3

[10] = system: HLA molecules of the B51 type; assay type: binding, human
Description: as §1, §2, §3

T1 sequence (P01889 25-362): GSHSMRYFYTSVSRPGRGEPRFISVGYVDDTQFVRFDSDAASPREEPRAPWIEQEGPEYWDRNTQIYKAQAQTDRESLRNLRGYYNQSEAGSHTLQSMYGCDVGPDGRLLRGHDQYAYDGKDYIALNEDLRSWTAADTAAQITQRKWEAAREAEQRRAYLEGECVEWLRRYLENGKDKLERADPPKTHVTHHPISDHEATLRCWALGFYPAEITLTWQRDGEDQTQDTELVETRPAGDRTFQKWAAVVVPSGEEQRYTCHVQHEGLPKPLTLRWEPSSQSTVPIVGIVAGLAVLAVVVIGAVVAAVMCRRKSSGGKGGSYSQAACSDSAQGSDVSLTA
T1 sequence (P61769 21-119, further chain): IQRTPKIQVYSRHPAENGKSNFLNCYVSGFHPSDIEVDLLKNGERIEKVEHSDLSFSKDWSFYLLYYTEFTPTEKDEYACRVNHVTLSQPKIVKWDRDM
T2 sequence (P61769 21-119): as the sequence (P61769 21-119, further chain) above
T2 sequence (P04439 25-365): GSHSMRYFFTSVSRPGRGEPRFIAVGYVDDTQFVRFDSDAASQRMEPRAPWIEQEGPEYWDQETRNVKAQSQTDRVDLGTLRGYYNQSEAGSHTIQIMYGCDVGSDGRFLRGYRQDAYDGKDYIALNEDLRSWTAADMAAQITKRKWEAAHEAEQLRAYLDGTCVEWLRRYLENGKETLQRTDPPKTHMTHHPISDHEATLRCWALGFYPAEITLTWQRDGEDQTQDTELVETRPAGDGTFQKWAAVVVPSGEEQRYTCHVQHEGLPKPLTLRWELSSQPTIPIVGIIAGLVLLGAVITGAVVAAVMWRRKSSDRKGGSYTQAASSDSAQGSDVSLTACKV

Sequence: AEPDRAHY (Human Papillomavirus)
- binding stably to HLA molecules of the A29 type [1]: binding stably
- binding stably to HLA molecules of the B44 type [2]: binding stably

Sequence: ALNKMFCQL (listed as Homo sapiens)
- binding stably to HLA molecules of the B35 type [3]: binding stably

Sequence: APPQHLIRV
- binding stably to HLA molecules of the B7 type [4]: binding stably

Sequence: CYSLYGTTL (Human Papillomavirus)
- binding stably to HLA molecules of the A24 type [5]: binding stably

Sequence: EPDRAHYNIV (Human Papillomavirus)
- binding stably to HLA molecules of the B35 type [3]: binding stably
- binding stably to HLA molecules of the B7 type [4]: binding stably

Sequence: EYLDDRNTF
- binding stably to HLA molecules of the A24 type [5]: binding stably

Sequence: FRDLCIVYR (Human Papillomavirus)
- binding stably to HLA molecules of the A11 type [6]: binding stably
- binding stably to HLA molecules of the A3 type [7]: binding stably

Sequence: FRHSVVVPY (listed as Homo sapiens)
- binding stably to HLA molecules of the B27 type [8]: binding stably

Sequence: GDTPTLHEY (Human Papillomavirus)
- binding stably to HLA molecules of the B44 type [2]: binding stably

Sequence: GLAPPQHLIRV
- binding stably to HLA molecules of the A2 type [9]: binding stably

Sequence: GRNSFEVR (listed as Homo sapiens)
- binding stably to HLA molecules of the B27 type [8]: binding stably

Sequence: GSYGFRLGFL (listed as Homo sapiens)
- binding stably to HLA molecules of the B35 type [3]: binding stably

Sequence: IILECVYCK (Human Papillomavirus)
- binding stably to HLA molecules of the A11 type [6]: binding stably

Sequence: IRVEGNLRVEY (listed as Homo sapiens)
- binding stably to HLA molecules of the B27 type [8]: binding stably

Sequence: ITLEDSSGN (listed as Homo sapiens)
- binding stably to HLA molecules of the A2 type [9]: binding stably

Sequence: IVCPICSQK
- binding stably to HLA molecules of the A11 type [6]: binding stably
- binding stably to HLA molecules of the A3 type [7]: binding stably

Sequence: IVYRDGNPY
- binding stably to HLA molecules of the A11 type [6]: binding stably
- binding stably to HLA molecules of the A3 type [7]: binding stably

Sequence: IYKQSQHM (listed as Homo sapiens)
- binding stably to HLA molecules of the A24 type [5]: binding stably

Sequence: KKQRFHNIR (Human Papillomavirus)
- binding stably to HLA molecules of the B27 type [8]: binding stably

Sequence: KLPQLCTEL
- binding stably to HLA molecules of the A2 type [9]: binding stably

Sequence: LECVYCKQQL (Human Papillomavirus)
- binding stably to HLA molecules of the A29 type [1]: binding stably
- binding stably to HLA molecules of the B44 type [2]: binding stably

Sequence: LEDLLMGTL (Human Papillomavirus)
- binding stably to HLA molecules of the A29 type [1]: binding stably
- binding stably to HLA molecules of the B44 type [2]: binding stably

Sequence: LEDSSGNLL (listed as Homo sapiens)
- binding stably to HLA molecules of the B44 type [2]: binding stably

Sequence: LEQQYNKPL
- binding stably to HLA molecules of the A29 type [1]: binding stably
- binding stably to HLA molecules of the B44 type [2]: binding stably

Sequence: LLGRNSFEV
- binding stably to HLA molecules of the A2 type [9]: binding stably

Sequence: LLMGTLGIV
- binding stably to HLA molecules of the A2 type [9]: binding stably

Sequence: LPQLCTEL (Human Papillomavirus)
- binding stably to HLA molecules of the B51 type [10]: binding stably

Sequence: LRVEYLDDR (listed as Homo sapiens)
- binding stably to HLA molecules of the B27 type [8]: binding stably

Sequence: NIVTFCCK (Human Papillomavirus)
- binding stably to HLA molecules of the A11 type [6]: binding stably
- binding stably to HLA molecules of the A3 type [7]: binding stably

Sequence: NYMCNSSCM (listed as Homo sapiens)
- binding stably to HLA molecules of the A24 type [5]: binding stably

Sequence: PEEKQRHL (Human Papillomavirus)
- binding stably to HLA molecules of the B44 type [2]: binding stably

Sequence: PPGTRVRAM (listed as Homo sapiens)
- binding stably to HLA molecules of the B35 type [3]: binding stably

Sequence: QLCTELQTTI (Human Papillomavirus)
- binding stably to HLA molecules of the A2 type [9]: binding stably

Sequence: QRFHNIRGRW (Human Papillomavirus)
- binding stably to HLA molecules of the B27 type [8]: binding stably

Sequence: RFHNIRGRW (Human Papillomavirus)
- binding stably to HLA molecules of the A24 type [5]: binding stably

Sequence: RPILTIITL
- binding stably to HLA molecules of the B35 type [3]: binding stably
- binding stably to HLA molecules of the B7 type [4]: binding stably

Sequence: RPRKLPQL (Human Papillomavirus)
- binding stably to HLA molecules of the B35 type [3]: binding stably
- binding stably to HLA molecules of the B7 type [4]: binding stably

Sequence: RREVYDFAFR (Human Papillomavirus)
- binding stably to HLA molecules of the B27 type [8]: binding stably

Sequence: RRPILTIITL (listed as Homo sapiens)
- binding stably to HLA molecules of the B27 type [8]: binding stably

Sequence: RVEGNLRVEY (listed as Homo sapiens)
- binding stably to HLA molecules of the A2 type [9]: binding stably

Sequence: RVRAMAIYK (listed as Homo sapiens)
- binding stably to HLA molecules of the A3 type [7]: binding stably

Sequence: SDCTTIHYNY (listed as Homo sapiens)
- binding stably to HLA molecules of the B44 type [2]: binding stably

Sequence: SEYRHYCY (Human Papillomavirus)
- binding stably to HLA molecules of the A29 type [1]: binding stably
- binding stably to HLA molecules of the B44 type [2]: binding stably

Sequence: STPPPGTRV (listed as Homo sapiens)
- binding stably to HLA molecules of the A2 type [9]: binding stably

Sequence: SYGFRLGFL (listed as Homo sapiens)
- binding stably to HLA molecules of the A24 type [5]: binding stably

Sequence: TELQTTIHDI (Human Papillomavirus)
- binding stably to HLA molecules of the A29 type [1]: binding stably
- binding stably to HLA molecules of the B44 type [2]: binding stably

Sequence: TFRHSVVV (listed as Homo sapiens)
- binding stably to HLA molecules of the A24 type [5]: binding stably

Sequence: TIHDIILRCV
- binding stably to HLA molecules of the A2 type [9]: binding stably

Sequence: TLEQQYNK (Human Papillomavirus)
- binding stably to HLA molecules of the A11 type [6]: binding stably
- binding stably to HLA molecules of the A3 type [7]: binding stably

Sequence: TLGIVCPI (Human Papillomavirus)
- binding stably to HLA molecules of the A2 type [9]: binding stably

Sequence: TPTLHEYML (Human Papillomavirus)
- binding stably to HLA molecules of the B35 type [3]: binding stably

Sequence: TRVRAMAIYK (listed as Homo sapiens)
- binding stably to HLA molecules of the B27 type [8]: binding stably

Sequence: TYQGSYGFRL
- binding stably to HLA molecules of the A24 type [5]: binding stably

Sequence: TYSPALNKMF
- binding stably to HLA molecules of the A24 type [5]: binding stably

Sequence: VEGNLRVEY (listed as Homo sapiens)
- binding stably to HLA molecules of the B44 type [2]: binding stably

Sequence: VEYLDDRNTF (listed as Homo sapiens)
- binding stably to HLA molecules of the B44 type [2]: binding stably

Sequence: VRVCACPGR (listed as Homo sapiens)
- binding stably to HLA molecules of the B27 type [8]: binding stably

Sequence: VYDFAFRDL (Human Papillomavirus)
- binding stably to HLA molecules of the A24 type [5]: binding stably

Sequence: YDFAFRDL (Human Papillomavirus)
- binding stably to HLA molecules of the A29 type [1]: binding stably
- binding stably to HLA molecules of the B44 type [2]: binding stably

Sequence: YMLDLQPETT
- binding stably to HLA molecules of the A2 type [9]: binding stably
